This note sets out measurements from patent publication US5610143A, “Antibiotics GE 37468 A, B and C” (Gruppo Lepetit S.p.A., priority 1995, dated 1997).

Experiment [1] has as its system Clostridium perfringens L290. Particulars: Wilkins-Chalgren broth, inoculum 10^5, 48 h, 37° C., N2:CO2:H2 (80:10:10).
The subject of experiment [2] is Neisseria gonorrhoeae L997. Particulars: GC Base broth +1% IsoVitalex, inoculum 10^4 CFU/ml, 48 h, 37° C., 5% CO2 in air.
Experiment [3] concerns Enterococcus faecalis ATCC 7080. Kind of experiment: MIC by broth microdilution. Format: cell-based. Particulars: Iso-Sensitest broth, inoculum 10^4 CFU/ml, 20-24 h, 37° C. For orientation: In broth dilution the organism is exposed to a series of concentrations in liquid medium.
Experiment [4] relates to Pseudomonas aeruginosa ATCC 10145. Particulars: Iso-Sensitest broth, inoculum 10^4 CFU/ml, 20-24 h, 37° C.
The subject of experiment [5] is Proteus vulgaris ATCC 881. The settings on record: Iso-Sensitest broth, inoculum 10^4 CFU/ml, 20-24 h, 37° C.
Experiment [6] has as its system Staphylococcus epidermidis ATCC 12228. Particulars: Iso-Sensitest broth, inoculum 10^4 CFU/ml, 20-24 h, 37° C.
Experiment [7] deals with Staphylococcus haemolyticus L602. Particulars: Iso-Sensitest broth, inoculum 10^4 CFU/ml, 20-24 h, 37° C.
Experiment [8] concerns Bacteroides fragiles ATCC 25285. The settings on record: Wilkins-Chalgren broth, inoculum 10^5, 48 h, 37° C., N2:CO2:H2 (80:10:10).
The subject of experiment [9] is Escherichia coli L47. The settings on record: Iso-Sensitest broth, inoculum 10^4 CFU/ml, 20-24 h, 37° C.
In experiment [10] the test system is Staphylococcus aureus L165. Particulars: Iso-Sensitest broth, inoculum 10^4 CFU/ml, 20-24 h, 37° C.
The subject of experiment [11] is Staphylococcus aureus Smith. The experiment is described as follows: MIC by broth microdilution. Format: cell-based. The settings on record: Iso-Sensitest broth, inoculum 10^4 CFU/ml, 20-24 h, 37° C.
In experiment [12] the test system is Candida albicans L145. The settings on record: phosphate buffered Yeast Nitrogen Base broth with glucose and L-asparagine, inoculum 10^4 CFU/ml, 20-24 h, 37° C.
Experiment [13] relates to Haemophilus influenzae ATCC 19418. The settings on record: Brain Heart Infusion broth +1% Supplement C, inoculum 10^4 CFU/ml, 48 h, 37° C., 5% CO2 in air.
Experiment [14] concerns Propionibacterium acnes ATCC 6919. Kind of experiment: MIC by broth microdilution. Format: cell-based. The settings on record: Wilkins-Chalgren broth, inoculum 10^5, 48 h, 37° C., N2:CO2:H2 (80:10:10).

Consider `C=C(NC(=O)c1csc(-c2ccc3c(n2)-c2csc(n2)-c2csc(n2)C2C(C)CC(O)N2C(=O)C(Cc2ccc(O)cc2)NC(=O)C2CSC(=N2)C(Cc2ccccc2)NC(=O)c2csc(n2)C(CC(N)=O)NC(=O)c2nc-3oc2C)n1)C(N)=O` (stereo not shown) [GE37468C], for which the M.I.C. in experiment [1] is listed as 0.016 microgram/ml; in [2], > 128 microgram/ml; in experiment [3], 0.03 microgram/ml; in experiment [4] it was > 128 microgram/ml; in [5], > 128 microgram/ml; in [6] it was 0.25 microgram/ml. Moreover, the M.I.C. in experiment [7] was 0.13 microgram/ml; in experiment [8], > 128 microgram/ml; in experiment [9], > 128 microgram/ml; in [10], 0.03 microgram/ml; in [11] it was 0.03 microgram/ml; in [12] it was > 128 microgram/ml. Also, the M.I.C. in [13] is > 128 microgram/ml; in experiment [14], 0.016 microgram/ml.
`Cc1oc2nc1C(=O)NC(CC(N)=O)c1nc(cs1)C(=O)NC(Cc1ccccc1)C1=NC(CS1)C(=O)NC(Cc1ccc(O)cc1)C(=O)N1C(O)CC(C)C1c1nc(cs1)-c1nc(cs1)-c1nc(-c3nc(C(N)=O)cs3)ccc1-2` (stereo not shown) [GE37468B]: the M.I.C. in experiment [1] is given as 0.016 microgram/ml; in experiment [2], > 128 microgram/ml; in experiment [3] it was 0.03 microgram/ml; in [4], > 128 microgram/ml; in [5], > 128 microgram/ml; in experiment [6], 0.06 microgram/ml. Moreover, the M.I.C. in experiment [7] is 0.13 microgram/ml; in [8], > 128 microgram/ml; in [9] it was > 128 microgram/ml; in experiment [10], 0.03 microgram/ml; in [11] it was 0.03 microgram/ml; in [12], > 128 microgram/ml. Moreover, the M.I.C. in experiment [13] is reported as > 128 microgram/ml; in experiment [14], 0.016 microgram/ml.
